# Data: publication PMC13095408, “DBeQ derivative targets vacuolar protein sorting 4 functions in cancer cells and suppresses tumor growth in mice” (The Journal of Pharmacology and Experimental Therapeutics, 2025)
# How the values were obtained:
# [1] = tested on: GFP-CHMP4B- and mCherry-LGALS3-expressing U2OS cells; experiment: mCherry-LGALS3 accumulation, endolysosomal membrane integrity (HCM); type: cell-based; details: 2 μM 4-107, starved, 2 hours
# Procedure: Live-cell fluorescence imaging and analysis were performed using the CellInsight CX7 LZR high-content screening platform with Onstage Incubator (Thermo Scientific; 37 °C, 5% CO2, 20% O2, 60% humidity). SM was acclimatized at 37 °C and 5% CO2 for at least 30 minutes prior to all experiments for pH equilibration. For cell-based VPS4i screen, U2OS cells stably expressing N-terminal GFP-tagged charged multivesicular body protein 4B (GFP-CHMP4B) were cultured in black clear-bottom 96-well plates (Corning; 3603) at a density of 6000 cells/well. Cells were stained with Hoechst 33342 (1:1000) for 15 minutes at 37 °C, rinsed with 1× Dulbecco's phosphate-buffered saline (DPBS), and treated with SM containing 0.1% DMSO or 1 μM test compounds. Plates were then scanned using the 20× objective for 1 hour with ≥100 cells/well across 6 fields/well. Fluorescence intensity of GFP-CHMP4B foci per cell for each compound was normalized to that of 4-107. For all other assays, the cells were cultured overnight in black glass-bottom 96-well plates (Cellvis; P96-1.5H-N) then stained, rinsed, and treated with SM containing the indicated compounds (0.1% DMSO or 0.1% DMSO/0.1% ethanol [vehicle] final). Plates were scanned using the 20× NA .70 objective at the indicated intervals with ≥ 300 cells/well across 3 fields/well. […]
# U2OS cells = experiment: Live-cell quantification of YOYO-3-positive dead cells; type: cell-based
# Procedure: To measure caspase activity, cells cultured in white opaque-bottom 384-well plates were incubated in the presence or absence of 1 μg/mL Dox for 24 hours. Caspase-Glo 8 or 3/7 reagent was then added 1:1 and allowed to incubate for 90 minutes at RT followed by luminescence measurement using the CLARIOstar microplate reader (BMG LABTECH). Signals had background luminescence subtracted and then normalized to the respective Dox-untreated i-GFP-expressing parental controls to obtain relative CASP8-like LETDase or CASP3/7-like DEVDase activities. For live-cell quantification, the cells seeded on black clear-bottom 96-well plates were incubated with the indicated compounds (0.1% to 0.3% DMSO final) in the presence of 100 nM YOYO-3, a cell-impermeant DNA-binding fluorescent probe that stains membrane integrity-impaired, dead cells. […] Phase and fluorescence images were obtained at the indicated intervals using the IncuCyte S3 Live-Cell Analysis System (Essen BioScience; 10× objective) and then analyzed using the Cell-by-Cell Analysis module (Essen BioScience; 9600-0031) of IncuCyte S3 Software (Essen BioScience; Version 2019B Rev2). To quantify the percentage of dead GFP-expressing cells, the GFP and YOYO-3 double-positive cell population was divided by the total GFP-positive cell population.
# Thermodynamic solubility = type: physicochemical; details: FaSSIF-V2 buffer, thermodynamic from solid; In FaSSIF-V2, pH 6.5
# [2] = Human liver microsomal stability; type: in vitro ADME; details: Human liver microsomes, 1 μM of compound
# Procedure: (§1) All in vitro absorption, distribution, metabolism, and excretion (ADME) studies were conducted by BioDuro-Sundia. […] Caco-2 permeability, human liver microsomal stability, and human plasma protein binding assays as well as liquid chromatography-mass spectrometry/mass spectrometry analyses were performed following standard protocols previously described in detail ([Kazakova et al, 2023]).
# [3] = Human plasma protein binding; type: in vitro ADME; details: 5 μM of compound
# Procedure: as §1
# 9464D s.c. tumors = experiment: 9464D syngeneic mouse model of neuroblastoma; type: in vivo; details: 5 mg/kg/day, i.p.
# Procedure: To establish a syngeneic tumor mouse model, 9464D cells were resuspended in 50% Matrigel Matrix in 1× PBS at a concentration of […] and a total of 0.1 mL of this mixture (1 × 10^6 cells) was subcutaneously injected into the flank of each of the 6 to 8-week-old B6 mice (n = 19; 12 M, 7 F). Fourteen days after engraftment, mice began daily intraperitoneal administration of either vehicle (n = 9; 6 M, 3 F) or 5 mg/kg 4-107 (n = 10; 6 M, 4 F). Mouse tumor volume was measured weekly, then every 1–3 days once vehicle-treated tumors reached 1000–2000 mm^3. Tumor volume was calculated as πLW^2/6 using length (L) and width (W) caliper measurements. Mouse body weight was measured daily. Humane endpoints were defined as tumor volume reaching 4000 mm^3 or mice reaching the aforementioned toxicity endpoints, at which point the affected mice were euthanized. The experimental endpoint was determined as the time when the majority of tumors from the control group reached 4000 mm^3.
smiles,measurement,setting,value
"COc1cccc2c(NCc3ccccc3)nc(NCc3ccccc3)nc12 [Compound 4-107, N^2,N^4-dibenzyl-8-methoxyquinazoline-2,4-diamine]",mCherry-LGALS3 signals (endolysosomal membrane integrity),[1],increase in mCherry-LGALS3 signals
same,cell death (YOYO-3-positive dead cells),"U2OS cells; 2 μM 4-107, WT U2OS cells",induced cell death in a time-dependent manner
same,enhanced temporal sensitivity of VPS4A- and VPS4B-deficient cells compared with WT cells,"U2OS cells; 2 μM 4-107, crVPS4A, crVPS4B vs WT U2OS",about 12 hours
same,solubility thermodynamic at 16 h,Thermodynamic solubility,17 µM
same,"Liver microsomal stability, remaining after 1 h",[2],71.83%
same,microsomal CLint at 1 μM,"[2]; read-out: In vitro intrinsic clearance, Clint",11.8 µL/min/mg
same,half-life at 1 μM,"[2]; read-out: Liver microsomal stability, T1/2",117 min
same,fraction unbound at 5 μM,[3],0.0007
same,tumor growth,"9464D s.c. tumors; from day 14 after engraftment, B6 mice",significantly reduced tumor growth
same,mice that tolerated treatment,9464D s.c. tumors; tumor-bearing B6 mice,7 of 10
